Measurements reported in PMC12703428, “Development of Granzyme A Turn‐ON Fluorescent Activity‐Based Probes” (Chembiochem, 2025).

Key:
hGzmA = target: T1, hGzmA (Homo sapiens, UniProt P12544); experiment: Granzyme A cleavage assay (fluorogenic substrate); format: biochemical; conditions: hGzmA 50 nM, inhibitor 200 nM, substrate 100 μM, 50 mM Tris, 150 mM NaCl, 0.01% Triton X-100 pH 8, 15 h, 37 °C, Ex/Em 380/460 nm, mean ± SD n = 3
T1 construct: active, mature form; purchased Enzo Life Sciences ALX-201-118-C010
T1 sequence (P12544 29-262): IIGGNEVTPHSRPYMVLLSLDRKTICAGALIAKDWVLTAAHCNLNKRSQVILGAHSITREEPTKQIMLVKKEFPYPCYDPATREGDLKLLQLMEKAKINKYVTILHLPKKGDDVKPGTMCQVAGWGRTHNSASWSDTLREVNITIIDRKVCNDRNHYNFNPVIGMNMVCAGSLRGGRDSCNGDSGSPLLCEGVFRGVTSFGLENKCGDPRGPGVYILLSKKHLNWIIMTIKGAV
Description: Figure 1 GzmA phosphonate and phosphinate inhibitors. A) Synthesis of phosphonate warhead I‐3. B) Synthesis of phosphosphinate warhead I‐4. C) Synthesis of Ac‐IGNR‐PO(OPh)2 1 and Ac‐IGNR‐PO(OPh)Ph 2. D) GzmA inhibition. hGzmA (50 nM) was incubated with inhibitor 1 or 2 (200 nM) and GzmA fluorogenic substrate (Ac‐Oic‐Gly‐Pro‐Arg‐PABA‐MU, 100 μM) for 15 h at 37 °C. Fluorescence at Ex/Em: 380/460 nm was recorded for residual GzmA proteolytic activity.
A. Granzyme A cleavage assay
Briefly, hGzmA (50 nM) was incubated with either inhibitor 1 or 2 (200 nM), and GzmA fluorogenic substrate […] (100 µM) in 50 mM Tris, 150 mM NaCl, 0.01% Triton X-100 (pH 8) for 15 hr at 37 °C. Recorded fluorescence at Ex/Em: 380/460 nm for residual GzmA […]
Cat. No. CRL-2570) and 4T1 (ATCC Cat. No. CRL-2539) cells were cultured in RPMI supplemented with 10% fetal bovine serum (FBS), 1% penicillin/streptomycin (PS), and 2 mM L-glutamine, while HEK293T and MDA-MB-231 cells (ATCC Cat. No. HTB-26) were cultured in DMEM supplemented likewise as described above. […] The supernatant was collected, and protein concentration was measured using a Pierce BCA protein assay. […]
C. In-gel fluorescence imaging […]
Conditions for probe/inhibitor treatment for in-gel fluorescence analysis: Inhibitors and probes were incubated with active (or pro-) GzmA followed by treatment with 4X SDS reducing sample buffer. […]

[1] = target: T2, recombinant human GzmA (hGzmA) (Homo sapiens, UniProt P12544); experiment: In-gel fluorescence labeling of recombinant active hGzmA; format: biochemical; conditions: hGzmA 100 nM preincubated with inhibitor 5 μM 2 h, then ABPs 3–5 50 nM 2 h, 37 °C
T2 construct: active, mature form; purchased Enzo Life Sciences ALX-201-118-C010
T2 sequence (P12544 29-262): T1 sequence (P12544 29-262)
Description: Figure 3 GzmA ABPs covalently and competitively label active human and mouse GzmA. […] Recombinant hGzmA (100 nM) was incubated with varying concentrations of each ABP at 37 °C. B) Competitive labeling of hGzmA. Recombinant hGzmA (100 nM) was preincubated with covalent inhibitors 1 or 2 (5 μM) for 2 h, followed by labeling with ABPs 3 –5 (50 nM) for 2 h at 37 °C. Note: Pro‐form of hGzmA (the first lane) is not effectively stained by SYPRO‐Ruby. C) Structure of qABP 6. D) Quenched natures of 5 and 6. […] F) Labeling of mGzmA (1 μM) with 5 and 6 (1 μM, 24 h, 37 °C). Protein samples were analyzed by SDS‐PAGE and in‐gel fluorescence scanning for Cy5 signal and SYPRO Ruby staining. […]
C. In-gel fluorescence imaging
For recombinant enzyme labeling, working solutions of hGzmA (purchased from R&D Systems, Cat. No. 2905-SE-010 for pro-from and Enzo Life Sciences, Cat. No.: ALX-201-118-C010 for active, mature form) were prepared by diluting a 12.6 µM stock in the following assay buffer: 50 […]
mM Tris, 100 mM NaCl, 5 mM CaCl2, 0.01% (v/v) Tween-20, pH 7.5. […]
In-gel fluorescence and
SYPRO-Ruby staining images were acquired on a Typhoon FLA9500 instrument, while western blot images were acquired on an AMHERST ImageQuant 800 instrument.
Conditions for probe/inhibitor treatment for in-gel fluorescence analysis: Inhibitors and probes were incubated with active (or pro-) GzmA followed by treatment with 4X SDS reducing sample buffer. Samples were then heated to 100 °C for 5 min, brought to room temperature, and centrifuged. 20 µL of each sample was loaded onto a 15% polyacrylamide gel, which was then subjected to electrophoresis followed by the acquisition of in-gel fluorescence images. GzmA labeling was confirmed by western blotting, while protein loading was confirmed with SYPRO-Ruby staining. Incubation conditions for each figure/experiment are described below:
Conditions for Figure 3A: For labeling comparison between 3, 4, and 5, 100 nM of human GzmA was incubated with various concentrations of each probe for 2 h at 37 °C. For time-dependent labeling, 50 nM of 5 was incubated with 100 nM of human GzmA at 37 °C for the specified durations. Final reaction volume for both was 20 µL.
Conditions for Figure 3B: 100 nM of human GzmA was incubated with DMSO or 5 µM of 1 or 2 for 2 h at 37 °C in Eppendorf tubes. 0.5 µL of a 2 µM solution of 3, 4, or 5 in DMSO was then spiked into the Eppendorf tube, yielding a final probe concentration of 50 nM. The solution was incubated for another 2 h at 37 °C. Final reaction volume was 20 µL.
Conditions for Figure 3E: 100 nM of human GzmA was incubated with various concentrations of 5 or 6, respectively, for 2 h at 37 °C. Final reaction volume was 20 µL.
Conditions for Figure 3F: 1 µM of mouse GzmA was incubated with 1 µM of 5 or 6, respectively, for 24 h at 37 °C. Final reaction volume was 20 µL.
Conditions for Figure 4A: 1 mg/mL of lysates was incubated with various concentrations of 5 or 6, respectively, for 1 h at 37 °C.
Conditions for Figure 4C: Various concentrations of probes 3-6 were incubated with 1x10^6 NK-92 cells for 2 h at 37 °C in a humidified incubator. Cells were centrifuged, washed with PBS (x2) and lysed with ~40 µL of ice-cold RIPA buffer. Lysates were collected, protein concentration was measured with PIERCE BCA protein assay and samples were analyzed with in-gel fluorescence and GzmA western blotting. […]
All flow cytometry data were collected on BD LSRFortessa and FACSymphony A5 Cell Analyzers and analyzed with FlowJo software. Briefly, cells were processed according to the intended protocols for each experiment. Thereafter, cells were pelleted, fixed in the dark for 20 min at room temperature (Fixation buffer: BioLegend #420801), and pelleted again by centrifugation. Fixed cells were then resuspended in 1x intracellular staining perm wash buffer (BioLegend #421002), followed by centrifugation two times. Fixed/Permeabilized cells were then resuspended in […]

CC[C@H](C)[C@H](NC(C)=O)C(=O)NCC(=O)N[C@@H](CC(N)=O)C(=O)NC(CCCNC(=N)N)P(=O)(Oc1ccccc1)c1ccccc1 (stereo partly shown) [compound 2, Ac‐IGNR‐PO(OPh)Ph]
Inhibition of GzmA‐mediated cleavage of a fluorogenic substrate (residual GzmA proteolytic activity) (hGzmA): comparable potency | Blocking of ABP labeling of hGzmA by inhibitor pretreatment [1]: competitively blocked

CC[C@H](C)[C@H](NC(C)=O)C(=O)NCC(=O)N[C@@H](CC(N)=O)C(=O)NC(CCCNC(=N)N)P(=O)(Oc1ccccc1)Oc1ccccc1 (stereo partly shown) [compound 1, Ac‐IGNR‐PO(OPh)2]
Inhibition of GzmA‐mediated cleavage of a fluorogenic substrate (residual GzmA proteolytic activity) (hGzmA): comparable potency | Blocking of ABP labeling of hGzmA by inhibitor pretreatment [1]: competitively blocked
